Source: patent publication US20160193206A1, “BET-PROTEIN-INHIBITING DIHYDROPYRIDOPYRAZINONES” (BAYER PHARMA AKTIENGESELLSCHAFT, priority 2012, published 2016)

Columns and labels:
MOLM-13 cell line = assay: MOLM-13 cell proliferation assay (alamarBlue); assay type: cell-based; conditions: Homo sapiens, inhibition of proliferation of MOLM-13 cells (acute myeloid leukaemia), 96 hours incubation
Method: In accordance with the invention, the substances were tested for their ability to inhibit the proliferation of the MOLM-13 cell linie (Deutsche Sammlung für Mikroorganismen und Zellkulturen [German Collection of Microorganisms and Cell Cultures], ACC 554; acute myeloid leukaemia). Cell viability was determined by means of the alamarBlue® reagent (Invitrogen) in a Victor X3 Multilabel Reader (Perkin Elmer). The excitation wavelength was 530 nm and the emission wavelength […].
The MOLM-13 cells were sown at a density of 4000 cells/well in 100 μl of growth medium on 96-well microtitre plates. After overnight incubation at 37° C., the fluorescence values were determined (CI values). The plates were then treated with various substance dilutions and incubated at 37° C. for 96 hours. Subsequently, the fluorescence values were determined (CO values). For the data analysis, the CI values were subtracted from the CO values and the results were compared between cells which had been treated with various dilutions of the substance or only with buffer solution. The IC50 values (substance concentration needed for 50% inhibition of cell proliferation) were calculated therefrom.

[1] = target: T1, BRD4 bromo domain 1 [BRD4(1)] (Homo sapiens, UniProt O60885); assay: BRD4(1)/acetylated peptide H4 binding assay (TR-FRET); conditions: inhibition of interaction between His6-tagged BRD4(1) (amino acids 67-152) and acetylated histone H4 peptide
T1 construct: N-terminally His6-tagged BRD4(1) (amino acids 67-152); made in house; host or cells: E. coli
Summary of the method: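 IC50 came from a 4-parameter fit of the 665/620 nm emission ratio, normalised to DMSO and no-protein controls. His6-tagged BRD4(1) residues 67-152 (typically 10 nM final) was preincubated 10 min with compound (0.1 nM to 20 μM, duplicates), then exposed to Ac-H4-biotin peptide at 22 °C for 1 h and 4 °C for at least 3 h.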

[2] = target: T2, BRD4 bromo domain 2 [BRD4(2)] (Homo sapiens, UniProt O60885); assay: BRD4(2)/acetylated peptide H4 binding assay (TR-FRET); conditions: inhibition of interaction between His6-tagged BRD4(2) (amino acids 357-445) and acetylated histone H4 peptide
T2 construct: N-terminally His6-tagged BRD4(2) (amino acids 357-445); made in house; host or cells: E. coli
Summary of the method: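 Compounds (0.1 nM to 20 μM, 11 points, duplicates) preincubated 10 min at 22 °C with 100 nM His6-tagged BRD4(2) residues 357-445, then Ac-H4-biotin peptide added; incubated 1 h at 22 °C and 3 h-overnight at 4 °C. Eu/XL665 emission ratio normalised to DMSO and no-protein controls; 4-parameter IC50.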

| SMILES | IC50 (MOLM-13 cell line) | IC50 [1] | IC50 [2] |
| --- | --- | --- | --- |
| C[C@@H]1C(=O)N(C)c2ccc(Nc3ccc(C(=O)NC4CN(C)C4)cc3)nc2N1C1CCCCC1 [Example 30, 4-{[(3R)-4-Cyclohexyl-1,3-dimethyl-2-oxo-1,2,3,4-tetrahydropyrido[2,3-b]pyrazin-6-yl]amino}-N-(1-methylazetidin-3-yl)benzamide] | 0.293 µM | 0.119 µM | 0.14 µM |
| COc1cc(C(=O)N[C@H]2CC[C@H](N3CCN(CC4CC4)CC3)CC2)ccc1Nc1ccc2c(n1)N(Cc1ccccc1)[C@H](C)C(=O)N2C [Example 34, 4-{[(3R)-4-Benzyl-1,3-dimethyl-2-oxo-1,2,3,4-tetrahydropyrido[2,3-b]pyrazin-6-yl]amino}-N-{trans-4-[4-(cyclopropylmethyl)piperazin-1-yl]cyclohexyl}-3-methoxybenzamide] | 0.338 µM | 0.256 µM | 0.104 µM |
| Cc1cc(C(=O)N[C@H]2CC[C@H](N3CCN(CC4CC4)CC3)CC2)ccc1Nc1ccc2c(n1)N(C1CCOCC1)[C@H](C)C(=O)N2C [Example 37, N-{trans-4-[4-(Cyclopropylmethyl)piperazin-1-yl]cyclohexyl}-4-{[(3R)-1,3-dimethyl-2-oxo-4-(tetrahydro-2H-pyran-4-yl)-1,2,3,4-tetrahydropyrido[2,3-b]pyrazin-6-yl]amino}-3-methylbenzamide] | 0.859 µM | 0.347 µM | 0.306 µM |
| COc1cc(C(=O)NC2CCC(=O)CC2)ccc1Nc1ccc2c(n1)N(C1CCOCC1)[C@H](C)C(=O)N2C [Example 38, 4-{[(3R)-1,3-Dimethyl-2-oxo-4-(tetrahydro-2H-pyran-4-yl)-1,2,3,4-tetrahydropyrido[2,3-b]pyrazin-6-yl]amino}-3-methoxy-N-(4-oxocyclohexyl)benzamide] | 0.051 µM | 0.194 µM | 0.079 µM |
| C[C@@H]1C(=O)N(C)c2ccc(Nc3ccc(C(=O)N4CC5(COC5)C4)cc3)nc2N1Cc1ccccc1 [Example 41, (3R)-4-Benzyl-1,3-dimethyl-6-{[4-(2-oxa-6-azaspiro[3.3]hept-6-ylcarbonyl)phenyl]amino}-3,4-dihydropyrido[2,3-b]pyrazin-2(1H)-one] | 0.191 µM | 0.122 µM | 0.109 µM |
| C[C@@H]1C(=O)N(C)c2ccc(Nc3ccc(C(=O)NC4CCC(O)CC4)cc3)nc2N1Cc1ccccc1 (stereo partly drawn) [Example 42, 4-{[(3R)-4-Benzyl-1,3-dimethyl-2-oxo-1,2,3,4-tetrahydropyrido[2,3-b]pyrazin-6-yl]amino}-N-(4-hydroxycyclohexyl)benzamide] | 0.326 µM | 0.156 µM | 0.099 µM |
| COc1cc(C(=O)N2CCN(C)CC2)ccc1Nc1ccc2c(n1)N(C1CCOCC1)[C@H](C)C(=O)N2C [Example 45, (3R)-6-({2-Methoxy-4-[(4-methylpiperazin-1-yl)carbonyl]phenyl}amino)-1,3-dimethyl-4-(tetrahydro-2H-pyran-4-yl)-3,4-dihydropyrido[2,3-b]pyrazin-2(1H)-one] | 0.539 µM | 0.077 µM | 0.086 µM |
| C[C@@H]1C(=O)N(C)c2ccc(Nc3ccc(C(=O)NCCN(C)C)cc3)nc2N1C1CCOCC1 [Example 48, N-[2-(Dimethylamino)ethyl]-4-{[(3R)-1,3-dimethyl-2-oxo-4-(tetrahydro-2H-pyran-4-yl)-1,2,3,4-tetrahydropyrido[2,3-b]pyrazin-6-yl]amino}benzamide] | 0.583 µM | 0.103 µM | 0.167 µM |
| C[C@@H]1C(=O)N(C)c2ccc(Nc3ccc(C(=O)NC4CN(C)C4)cc3)nc2N1C1CCOCC1 [Example 50, 4-{[(3R)-1,3-Dimethyl-2-oxo-4-(tetrahydro-2H-pyran-4-yl)-1,2,3,4-tetrahydropyrido[2,3-b]pyrazin-6-yl]amino}-N-(1-methylazetidin-3-yl)benzamide] | 0.576 µM | 0.145 µM | 0.111 µM |
| C[C@@H]1C(=O)N(C)c2ccc(Nc3ccc(C(=O)NCCN4CCN(C)CC4)cc3)nc2N1C1CCOCC1 [Example 51, 4-{[(3R)-1,3-Dimethyl-2-oxo-4-(tetrahydro-2H-pyran-4-yl)-1,2,3,4-tetrahydropyrido[2,3-b]pyrazin-6-yl]amino}-N-[2-(4-methylpiperazin-1-yl)ethyl]benzamide] | 0.507 µM | 0.138 µM | 0.219 µM |
| COc1cc(C(=O)N2CCC(N3CCCCC3)CC2)ccc1Nc1ccc2c(n1)N(C1CCOCC1)[C@H](C)C(=O)N2C [Example 53, (3R)-6-{[4-(1,4′-Bipiperidin-1′-ylcarbonyl)-2-methoxyphenyl]amino}-1,3-dimethyl-4-(tetrahydro-2H-pyran-4-yl)-3,4-dihydropyrido[2,3-b]pyrazin-2(1H)-one] | 0.249 µM | 0.09 µM | 0.094 µM |
| COc1cc(C(=O)NC2CN(C)C2)ccc1Nc1ccc2c(n1)N(C1CCOCC1)[C@H](C)C(=O)N2C [Example 55, 4-{[(3R)-1,3-Dimethyl-2-oxo-4-(tetrahydro-2H-pyran-4-yl)-1,2,3,4-tetrahydropyrido[2,3-b]pyrazin-6-yl]amino}-3-methoxy-N-(1-methylazetidin-3-yl)benzamide] | 0.668 µM | 0.215 µM | 0.128 µM |
| C[C@@H]1C(=O)N(C)c2ccc(Nc3ccc(C(=O)N[C@H]4CC[C@H](N5CCN(CC6CC6)CC5)CC4)cc3)nc2N1C1CCOCC1 [Example 57, N-{trans-4-[4-(Cyclopropylmethyl)piper-azin-1-yl]cyclohexyl}-4-{[(3R)-1,3-dimethyl-2-oxo-4-(tetrahydro-2H-pyran-4-yl)-1,2,3,4-tetrahydropyrido[2,3-b]pyrazin-6-yl]amino}benzamide] | 0.366 µM | 0.139 µM | 0.156 µM |
| C[C@@H]1C(=O)N(C)c2ccc(Nc3ccc(C(=O)NC4CCN(C)CC4)cc3)nc2N1C1CCOCC1 [Example 58, 4-{[(3R)-1,3-Dimethyl-2-oxo-4-(tetrahydro-2H-pyran-4-yl)-1,2,3,4-tetrahydropyrido[2,3-b]pyrazin-6-yl]amino}-N-(1-methylpiperidin-4-yl)benzamide] | 0.339 µM | 0.111 µM | 0.134 µM |
| COc1cc(C(=O)NCCc2cccnc2)ccc1Nc1ccc2c(n1)N(C1CCOCC1)[C@H](C)C(=O)N2C [Example 61, 4-{[(3R)-1,3-Dimethyl-2-oxo-4-(tetrahydro-2H-pyran-4-yl)-1,2,3,4-tetrahydropyrido[2,3-b]pyrazin-6-yl]amino}-3-methoxy-N-[2-(pyridin-3-yl)ethyl]benzamide] | 0.407 µM | 0.172 µM | 0.11 µM |
| COc1cc(C(=O)NC2CCC(N3CCC(F)(F)CC3)CC2)ccc1Nc1ccc2c(n1)N(C1CCOCC1)[C@H](C)C(=O)N2C (stereo partly drawn) [Example 62, N-[4-(4,4-Difluoropiperidin-1-yl)cyclohexyl]-4-{[(3R)-1,3-dimethyl-2-oxo-4-(tetrahydro-2H-pyran-4-yl)-1,2,3,4-tetrahydropyrido[2,3-b]pyrazin-6-yl]amino}-3-methoxybenzamide] | 0.444 µM | 0.187 µM | 0.146 µM |
| COc1cc(C(=O)NCCN2CCN(C)CC2)ccc1Nc1ccc2c(n1)N(C1CCOCC1)[C@H](C)C(=O)N2C [Example 64, 4-{[(3R)-1,3-Dimethyl-2-oxo-4-(tetrahydro-2H-pyran-4-yl)-1,2,3,4-tetrahydropyrido[2,3-b]pyrazin-6-yl]amino}-3-methoxy-N-[2-(4-methylpiperazin-1-yl)ethyl]benzamide] | 0.31 µM | 0.179 µM | 0.081 µM |
| C[C@@H]1C(=O)N(C)c2ccc(Nc3ccc(C(=O)NCCN4CCN(C)CC4)cc3)nc2N1C1CCCCC1 [Example 66, 4-{[(3R)-4-Cyclohexyl-1,3-dimethyl-2-oxo-1,2,3,4-tetrahydropyrido[2,3-b]pyrazin-6-yl]amino}-N-[2-(4-methylpiperazin-1-yl)ethyl]benzamide] | 0.27 µM | 0.14 µM | 0.154 µM |
| COc1cc(C(=O)NCCN2CCN(C)CC2)ccc1Nc1ccc2c(n1)N(C1CCCCC1)[C@H](C)C(=O)N2C [Example 67, 4-{[(3R)-4-Cyclohexyl-1,3-dimethyl-2-oxo-1,2,3,4-tetrahydropyrido[2,3-b]pyrazin-6-yl]amino}-3-methoxy-N-[2-(4-methylpiperazin-1-yl)ethyl]benzamide] | 0.265 µM | 0.178 µM | 0.11 µM |
